{"source": "patent US20100226922A1", "about": "“SPECIFIC PROTEASE INHIBITORS AND THEIR USE IN CANCER THERAPY” (priority 2006, published 2010)", "key": {"[1]": {"test_system": "EpCAM ectodomain (EpEX) shedding in HEK293-EpCAM cells", "experiment": "EpCAM ectodomain shedding, immunoprecipitation from conditioned supernatant of HEK293-EpCAM cells", "assay_type": "cell-based, human", "settings": "TAPI-2 40 μM, two days, versus vehicle diluent", "protocol": "In a next step, we assessed the existence of a shed ectodomain of EpCAM. Immunoprecipitation was performed with conditioned cell-free supernatants of HEK293-EpCAM and HEK293-control transfectants using antibodies specific for the extracellular (EpEC), i.e. HO.3 (an α-EpEC antibody; kind gift from Dr. Horst Lindhofer, TrionPharma, Munich, Germany) and intracellular (EpIC) domain of EpCAM (see above) essentially as described above. For a positive control, immunoprecipitation was performed in parallel with whole cell lysate of HEK293-EpCAM cells.\n(§1) Next, HEK293 cells were transiently transfected with EpCAM-YFP, treated with 40 μM TACE inhibitor TAPI-2 (Biomol, Germany) and EpIC formation monitored as described above for the inhibition of presenilin-2. […] Finally, the effect of TACE inhibition on the generation of the EpCAM ectodomain was assessed. HEK293-EpCAM cells were cultured two days in the presence or absence of TAPI-2 (40 μM) and cell-free conditioned supernatants were collected upon centrifugation (13,000 rpm, 10 min, 4° C.). Thereafter, immunoprecipitations were conducted with antibodies specific for EpEX as described above. […] In all cases, EpEX was devoid of the EpIC domain as it no longer reacted with the EpIC-specific antibody. […]"}, "[2]": {"test_system": "EpCAM-YFP cleavage in HEK293 cells", "experiment": "EpIC formation (EpCAM cleavage) by immunoblot in HEK293 cells transiently transfected with EpCAM-YFP", "assay_type": "cell-based, human", "settings": "for EpIC cleavage / release of EpIC-YFP from EpCAM-YFP: single cells incubated with recombinant EpEX, monitored over time", "source_text": "In the beginning of the study nothing was known about the molecular mechanisms underlying the signalling mechanisms of EpCAM. In order to test for potential EpCAM cleavage, full-length EpCAM was C-terminally fused to the yellow fluorescence protein to generate EpCAM-YFP. Similarly, a potential intracellular domain of EpCAM (EpIC), starting with serine^289, was fused to the YFP moiety to generate EpIC-YFP. For this purpose, EpCAM or EpIC cDNA sequences were cloned into peYFP-N1 (BD Biosciences, Heidelberg Germany). […] HEK293 cells are human embryonic kidney cells, which were cultured in standard DMEM containing 10% fetal calf serum and passaged three times per week. Transfection was carried out with MATra reagent (IBA, Göttingen, Germany) in six-well plates (5×10^5 cells/well) according to the manufacturer's protocol. One microgram of plasmid DNA was transfected per sample for a time period of 24 h. For immunoblot analysis, 1×10^6 cells were lysed in 100 μl lysis buffer (TBS/1% triton and protease inhibitors). Lysates were pre-cleared upon centrifugation (13.000 rpm, 4° C., 10 min), separated upon SDS-PAGE, and transferred onto PVDF membranes (Millipore, Bedford, US). The expression of both proteins was assessed upon immunobloting with EpIC- (A20 or 1144, which are α-EpIC antibodies; Santa Cruz Biotech, USA and Epitomics, USA) and YFP-specific antibodies in combination with horseradish peroxidase (HRP)-conjugated secondary antibodies and the ECL reagent (Amersham Biosciences).\nThe interaction of EpCAM with PS-2 and TACE indicates an involvement of these proteases in the proteolytic processing of EpCAM. To confirm this, HEK293 cells were transiently transfected with EpCAM-YFP expression plasmid. Briefly, 5×10^5 cells were plated in 6-well plates and transiently transfected 24 h later with 1 μg plasmid DNA using the MATra transfection reagent (IBA, Göttingen, Germany—1 μl reagent per 1 μg DNA). Transiently transfected HEK293 cells were treated with 60 nM of the γ-secretase inhibitor Compound E (Alexis Biochemicals, Germany) over a time period of two days. Proteins were separated by SDS-PAGE (30 mA/gel, 10% polyacrylamid gel), transferred onto PVDF membranes (Millipore, Bedford, US). Cleavage of EpIC was assessed with an EpIC-specific antibody (1144, Epitomics, USA) in a time kinetic. Treatment of transfected cells with compound E led to the reduced formation of EpIC along with the accumulation of intermediate cleavage products of EpCAM with a molecular weight of 33-37 kDa (FIG. 2C). These intermediates most likely represent EpCAM molecules lacking the ectodomain but which were not cleaved at the intracellular site. […] Thus, inhibition of presenilins has an impact on EpCAM signaling capacity.\nas §1"}, "[3]": {"test_system": "EpEX shedding in FaDu cells", "experiment": "EpEX shedding by FaDu cells expressing endogenous EpCAM", "assay_type": "cell-based, human", "settings": "treated with TAPI-2", "protocol": "The soluble ectodomain EpEX was detected in cell-free supernatants FaDu cells (Experiment was carried out as described for HEK293 cells).\nNext, HEK293 cells were transiently transfected with EpCAM-YFP, treated with 40 μM TACE inhibitor TAPI-2 (Biomol, Germany) and EpIC formation monitored as described above for the inhibition of presenilin-2. […] Finally, the effect of TACE inhibition on the generation of the EpCAM ectodomain was assessed. HEK293-EpCAM cells were cultured two days in the presence or absence of TAPI-2 (40 μM) and cell-free conditioned supernatants were collected upon centrifugation (13,000 rpm, 10 min, 4° C.). Thereafter, immunoprecipitations were conducted with antibodies specific for EpEX as described above. […] In all cases, EpEX was devoid of the EpIC domain as it no longer reacted with the EpIC-specific antibody. Ectodomain shedding may thus be a basic requirement for the cleavage of EpIC, as is the case for certain other receptors (Medina and Dotti, 2003, Cell Signal 15: 829-841)."}, "[4]": {"test_system": "TCF/Lef-responsive promoters in HEK293 cells", "assay_type": "cell-based, human"}, "FaDu carcinoma cells": {"test_system": "FaDu carcinoma cells", "experiment": "Proliferation (cell numbers) of FaDu carcinoma cells", "assay_type": "cell-based, human", "protocol": "We further investigated the significance of PS activity on EpCAM-mediated growth transformation of two cell types. Murine NIH3T3 transfectants (which were grown and transfected as described in Example 1) that ectopically express EpCAM, and FaDu carcinoma cells that naturally express EpCAM were treated with the DAPT over 4 days. […] Noteworthy, besides its capacity to rescue cells from DAPT-mediated growth inhibition, the expression of EpIC-YFP did even further increase proliferation of EpCAM-expressing FaDu carcinoma cells. Also, siRNA-mediated TACE reduction of proliferation of FaDu cells was tested. […] Modest effects may be explained by the comparatively low transfection efficiency of this cell line (FIG. 3A)."}, "[5]": {"test_system": "EpCAM-negative NIH3T3 control cells", "experiment": "Proliferation of EpCAM-negative NIH3T3 control cells", "assay_type": "cell-based, murine", "settings": "treatment with DAPT", "protocol": "(§2) We further investigated the significance of PS activity on EpCAM-mediated growth transformation of two cell types. Murine NIH3T3 transfectants (which were grown and transfected as described in Example 1) that ectopically express EpCAM, and FaDu carcinoma cells that naturally express EpCAM were treated with the DAPT over 4 days. […] Noteworthy, besides its capacity to rescue cells from DAPT-mediated growth inhibition, the expression of EpIC-YFP did even further increase proliferation of EpCAM-expressing FaDu carcinoma cells."}, "[6]": {"test_system": "NIH3T3 transfectants that ectopically express EpCAM", "experiment": "EpCAM-mediated growth transformation (cell numbers), NIH3T3 transfectants ectopically expressing EpCAM", "assay_type": "cell-based, murine", "protocol": "as §2"}, "[7]": {"biological_target": "EpCAM (epithelial cell adhesion molecule), full-length (human) (UniProt P16422)", "experiment": "cell-based or functional assay"}, "[8]": {"biological_target": "T1, EpCAM (epithelial cell adhesion molecule), full-length (human, UniProt P16422 24-314)", "T1 sequence (looked up)": "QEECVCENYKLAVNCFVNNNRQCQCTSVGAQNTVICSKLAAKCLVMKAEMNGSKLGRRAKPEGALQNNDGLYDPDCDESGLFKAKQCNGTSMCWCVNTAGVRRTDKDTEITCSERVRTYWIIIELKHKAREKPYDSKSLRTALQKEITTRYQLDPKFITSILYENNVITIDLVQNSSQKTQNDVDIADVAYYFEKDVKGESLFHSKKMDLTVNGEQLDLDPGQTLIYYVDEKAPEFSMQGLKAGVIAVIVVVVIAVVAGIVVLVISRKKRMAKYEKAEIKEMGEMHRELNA", "experiment": "cell-based or functional assay"}, "[9]": {"test_system": "endogenous EpCAM in FaDu cells", "experiment": "EpIC retention in the plasma membrane of isolated FaDu cells treated with EpEX", "assay_type": "cell-based, human", "protocol": "In search for inducers of EpCAM signaling, we investigated the possibility that EpEX serves as a soluble ligand for EpCAM. EpCAM was described as a homophilic adhesion molecule, which can confer intra- and intercellular adhesion via two distinct, cystein-rich extracellular domains. […] HEK293 cells were plated as single cells, transfected with EpCAM-YFP expression vector, and incubated with recombinant EpEX. EpIC formation was then monitored over time by immunoblotting (see above). […] This observation was further corroborated in carcinoma cells with respect to the cleavage of endogenous EpCAM molecules. […] In the absence of EpEX in the culture medium, a mean of 74% of single cells retained EpIC in the plasma membrane, while only 39% of the cells did so following treatment with EpEX."}, "[10]": {"settings": "DAPT over 4 days, data not shown"}, "[11]": {"settings": "DAPT plus EpIC-YFP expression (rescue)"}}}
{"molecule": "CC(C)C[C@H](CC(=O)NO)C(=O)N[C@H](C(=O)N[C@@H](C)C(=O)NCCN)C(C)(C)C", "note": "[TAPI-2]", "values": [{"measurement": "ectodomain shedding in the cell culture supernatant", "setting": "[1]", "value": "strong reduction of ectodomain shedding"}, {"measurement": "EpIC cleavage", "setting": "[2]; 40 μM TAPI-2", "value": "substantial reduction of EpIC cleavage"}, {"measurement": "c-Myc induction", "setting": "[2]; 40 μM TAPI-2", "value": "decrease in c-Myc induction"}, {"measurement": "formation of EpCAM intermediates", "setting": "[2]; 40 μM TAPI-2", "value": "no effect whatsoever"}, {"measurement": "EpEX shedding", "setting": "[3]", "value": "significant reduction of EpEX shedding"}]}
{"molecule": "[Cl-].[Li+]", "note": "[lithium chloride]", "values": [{"measurement": "mean induction of TCF/Lef", "setting": "[4]", "value": 2.5, "unit": "fold"}]}
{"molecule": "C[C@H](NC(=O)Cc1cc(F)cc(F)c1)C(=O)N[C@H](C(=O)OC(C)(C)C)c1ccccc1", "note": "[DAPT, N—[N-(3,5-difluorophenacetyl)-L-alanyl]-(S)-phenyl-glycine t-butyl ester]", "values": [{"measurement": "EpCAM-mediated growth transformation (cell numbers)", "setting": "FaDu carcinoma cells; [10]", "value": "substantially inhibited"}, {"measurement": "cell numbers under DAPT with expression of EpIC-YFP", "setting": "FaDu carcinoma cells; [11]", "value": "restored cell numbers to the level of untreated cells"}, {"measurement": "cell proliferation", "setting": "[5]", "value": "remained unaffected"}, {"measurement": "EpCAM-mediated growth transformation (cell numbers)", "setting": "[6]; [10]", "value": "substantially inhibited"}, {"measurement": "cell numbers under DAPT with expression of EpIC-YFP", "setting": "[6]; [11]", "value": "restored cell numbers to the level of untreated cells"}]}
{"molecule": "recombinant EpCAM extracellular domain EpEX (EpEXrec) (from UniProt P16422 24-265) (ligand)", "values": [{"measurement": "single FaDu cells retaining EpIC in the plasma membrane, following treatment with EpEX", "setting": "[7]", "value": 39, "unit": "%"}, {"measurement": "single FaDu cells retaining EpIC in the plasma membrane, in the absence of EpEX (control)", "setting": "[7]", "value": 74, "unit": "%"}]}
{"molecule": "four and a half LIM domain protein FHL2 (other, human, UniProt Q14192 1-279, looked up) MTERFDCHHCNESLFGKKYILREESPYCVVCFETLFANTCEECGKPIGCDCKDLSYKDRHWHEACFHCSQCRNSLVDKPFAAKEDQLLCTDCYSNEYSSKCQECKKTIMPGTRKMEYKGSSWHETCFICHRCQQPIGTKSFIPKDNQNFCVPCYEKQHAMQCVQCKKPITTGGVTYREQPWHKECFVCTACRKQLSGQRFTARDDFAYCLNCFCDLYAKKCAGCTNPISGLGGTKYISFEERQWHNDCFNCKKCSLSLVGRGFLTERDDILCPDCGKDI", "values": [{"measurement": "cell numbers at day five of treatment with EpCAM- or FHL2-specific siRNA against control siRNA", "setting": "[8]", "value": 2.5, "unit": "fold lower"}]}
{"molecule": "EpEXrec: recombinant EpCAM extracellular domain EpEX (protein) QEECVCENYKLAVNCFVNNNRQCQCTSVGAQNTVICSKLAAKCLVMKAEMNGSKLGRRAKPEGALQNNDGLYDPDCDESGLFKAKQCNGTSMCWCVNTAGVRRTDKDTEITCSERVRTYWIIIELKHKAREKPYDSKSLRTALQKEITTRYQLDPKFITSILYENNVITIDLVQNSSQKTQNDVDIADVAYYFEKDVKGESLFHSKKMDLTVNGEQLDLDPGQTLIYYVDEKAPEFSMQGLK", "values": [{"measurement": "single cells that retained EpIC in the plasma membrane (mean)", "setting": "[9]; after treatment with EpEX, 74% in the absence of EpEX", "value": 39, "unit": "%"}, {"measurement": "EpIC immunoreactivity at the site of the plasma membrane", "setting": "[9]; isolated FaDu cells treated with EpEX", "value": "significant loss"}, {"measurement": "EpIC cleavage / release of EpIC-YFP from EpCAM-YFP", "setting": "[2]", "value": "time-dependent induction of EpIC cleavage"}]}
{"molecule": "heat-treated EpEX: heat-treated recombinant EpCAM ectodomain, used as inactive control (protein, UniProt P16422 24-265, looked up, extracellular domain heat-treated) extracellular domain: QEECVCENYKLAVNCFVNNNRQCQCTSVGAQNTVICSKLAAKCLVMKAEMNGSKLGRRAKPEGALQNNDGLYDPDCDESGLFKAKQCNGTSMCWCVNTAGVRRTDKDTEITCSERVRTYWIIIELKHKAREKPYDSKSLRTALQKEITTRYQLDPKFITSILYENNVITIDLVQNSSQKTQNDVDIADVAYYFEKDVKGESLFHSKKMDLTVNGEQLDLDPGQTLIYYVDEKAPEFSMQGLK", "values": [{"measurement": "EpIC cleavage / release of EpIC-YFP from EpCAM-YFP", "setting": "[2]", "value": "did not result in a release of EpIC-YFP"}]}
